Results as given in publication PMC5503601 (Oncotarget, 2017).
“And” between values parts separate entries of the source, which are not always exact repeats. Equal values may be shown once. Read-outs that look alike come from different tables or passages of the source. Blank lines part the entries; values can stand above or below the compound they belong to.

Experiments:
[1] = target: T1, TOPK (Homo sapiens, UniProt Q96KB5); assay: Microscale thermophoresis (MST) binding assay; details: labeled TOPK 50 nM, 25°C, means ± SD for three experiments
T1 construct: hexa-histidine; made in house; host or cells: Escherichia coli BL21 (DE)
T1 sequence (Q96KB5 1-322): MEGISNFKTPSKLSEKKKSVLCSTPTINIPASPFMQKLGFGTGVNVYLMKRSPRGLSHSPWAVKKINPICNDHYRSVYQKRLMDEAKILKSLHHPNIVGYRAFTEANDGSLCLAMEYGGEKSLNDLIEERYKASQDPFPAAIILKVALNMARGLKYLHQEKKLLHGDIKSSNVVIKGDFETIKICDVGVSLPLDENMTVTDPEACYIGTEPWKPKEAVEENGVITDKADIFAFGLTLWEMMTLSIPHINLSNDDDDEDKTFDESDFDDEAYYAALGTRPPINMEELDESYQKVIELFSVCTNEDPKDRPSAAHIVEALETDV
Source text: To validate results of the virtual ligand screening, we employed microscale therm ophoresis method (MST) to assay the binding affinity between compounds and TOPK. This technology detected fluorescent changes of molecules during thermophoresis, to quantify protein-protein interactions or protein-small molecule interactions with high sensitivity and low sample cost.
Human TOPK gene (Accssion number: NM_018492) was cloned into the pET26b vector (Novagen). The expression construct pET26b-TOPK was transformed into Escherichia coli strain BL21 (DE) (Invitrogen) and selected on kanamycin plates. The transformed cells were cultivated in Luria-Bertani (LB) media at 37°C in the presence of kanamycin until the optical density (OD) reached 0.8. Cells were then induced with 0.4 mM IPTG (isopropyl-β-D-1-thiogalactopyranoside) for 16 h at 20°C. The cells harvested by centrifugation were lysed by ultrasonication on ice in a buffer containing 20 mM Tris, pH 8.5, 200 mM NaCl, 5 mM mercaptoethanol, 0.1% TritonX-100, and 5% glycerol.
Soluble hexa-histidine tagged TOPK was bound to Ni-agarose affinity resin (Qiagen), washed with buffer A (20 mM Tris, pH 8.5, 200mM NaCl, and 10 mM imidazole), and eluted with buffer B (20 mM Tris, pH 8.8, 250 mM NaCl, and 150 mM imidazole).
Recombinant TOPK was labeled with the Monolith NT™ Protein Labeling Kit RED (Cat # L001) according to the supplied labeling protocol. Labeled TOPK was used in a concentration of 50 nM. The samples were diluted in a 20 mM HEPES (pH 7.4) and 0.5 (v/v) % Tween-20. The prazoles stocks were dissolved in 10% DMSO in a concentration of 1 mM. 1mM prazoles were used as the highest concentration for serial dilutions. After 10minutes incubation at room temperature, the samples were loaded into Monolith^TM standard-treated capillaries and the thermophoresis was measured at 25°C after 30 minutes incubation on a Monolith NT.115 instrument (NanoTemper Technologies, München, Germany). Laser power was set to 20% using 30 seconds on-time. The LED power was set to 100%. The dissociation constant Kd values were fitted by using the NTAnalysis software (NanoTemper Technologies, München, Germany).

[2] = system: HCT116 cells; assay: Cell viability (cck8) assay, HCT116; assay type: cell-based; details: Homo sapiens, HCT-116, read-out: IC50 for HCT116 cell activities
Description: (§1) To estimate cell viability, human colon cancer HCT 116, ES-2, A549 and SW1990 cells (5000 cells/well) were seeded in 96-well plates for 24 h at 37°C in a 5% CO2 incubator. […] All experiments were performed in triplicate, and the mean absorbance values were calculated.

[3] = design: method as in SciFinder Academic database; details: ref SciFinder Academic database; cited from earlier work
[4] = system: ES-2 cells; assay: Cell viability (cck8) assay, ES-2; assay type: cell-based; details: Homo sapiens, read-out: IC50, growth of ES-2 cells
Description: as §1

[5] = system: A549, HCT116, ES-2 and SW1990 cells; assay: Cell viability (cck8) assay, 4 TOPK-positive cancer cell lines; assay type: cell-based; details: Homo sapiens; range over A549, HCT116, ES-2, SW1990; read-out: IC50 values, growth inhibition across the cell lines
Description: TOPK protein levels were measured by western blot in cancer cell lines derived from various cancer types, such as lung cancer (A549), colon cancer (HCT116), human ovarian cancer (ES-2) and pancreatic cancer cell (SW1990).
as §1

[6] = system: HCT116 cells; assay: Apoptosis by flow cytometry (Annexin V/propidium iodide), HCT116; assay type: cell-based, human; details: HCT116, 50 μM, 24 h; control 2%
Description: (§2) Cells were pre-treated with different concentrations of ilaprzole for 24 h, and then the cellular apoptosis was measured by using flow cytometry. […] Apoptotic cells were assessed by staining PBS washed cells with phycoerythrin (PE)-conjugated annexin-V (BD Pharmingen) for 10-15 minutes in incubation buffer (Annexin-V-FLUOS Staining Kit, Roche). Fluorescence was recorded by flow cytometry using the FACS Aria (BD Bio sciences).

[7] = system: ES-2 cells; assay: Apoptosis by flow cytometry (Annexin V/propidium iodide), ES-2; assay type: cell-based, human; details: ES-2, 50 μM, 24 h; control 2%
Description: as §2

[8] = system: TOPK activity (phosphorylation of histone H3 Ser10) in HCT116 cells; assay: Western blot of phosphorylated histone H3 (Ser10), HCT116; assay type: cell-based, human
Description: (§3) TOPK proteins were expressed mainly around chromosomal surfaces in mitotic cells, particularly at prophase and metaphase, so the histone was chosen as the substrate for TOPK activity evaluation. Some reports confirmed that TOPK could phosphorylate histone H3 in vitro and in vivo. […] (Figure 3a, 3b, Supplementary Figure 1a, 1b)
(§4) Histones were extracted from cells by disrupting the cells with NETN buffer [150 mM NaCl, 1 mM EDTA, 20 mM Tris-HCl (pH 8.0), 0.5% nonionic detergent IGEPAL CA 630(NP-40), Sigma]. The insoluble fraction was pelleted for 5 minutes in a microcentrifuge (8,400 rpm). Nuclei were extracted with 0.1 M HCl to isolate the total histones. The samples were precipitated with 1 M Tris- HCl (pH 8.0) and then resuspended in ddH2O.
(§5) The harvested cells were lysed with lysis buffer (50 mM Tris-HCl (pH 7.4), 150 mM NaCl, 1 mM EDTA, 1 mM EGTA, […], 5 mM phenylmethanesulfonyluoride (PMSF), 1 mM dithiolthreitol (DTT) containing 1% Triton X-100). Insoluble debris was removed by centrifugation at 12000 rpm for 15 minutes, and protein's content was determined using Bradford reagent (Bio-Rad, USA). Lysate protein (20-40 μg) was subjected to 10% SDS-PAGE and electrophoretically transferred to polyvinylidene difluoride membranes (PVDF) (Millipore, USA). […] Band density was quantified using the Image J software program (NIH).

[9] = system: TOPK activity (phosphorylation of histone H3 Ser10) in ES-2 cells; assay: Western blot of phosphorylated histone H3 (Ser10), ES-2; assay type: cell-based, human
Description: as §3, §4, §5

[10] = system: HCT116 cells; assay: Cell cycle distribution by flow cytometry, HCT116; assay type: cell-based, human; details: HCT116, increasing doses, 48 hours
[11] = system: shTOPK and shMock infected cancer cells; assay: Growth of shMock versus shTOPK infected cells (CCK8); assay type: cell-based, human; details: 48 hours
Source text: To investigate the growth-promoting role of TOPK in cancer cells, the expression of endogenous TOPK was knocked down in four cancer cells. By lentiviral infection, HCT116, ES-2, A549 and SW1990 cell lines stably expressing low levels of TOPK (shTOPK) were established. As the control, cells were infected with shMock. The abundance of TOPK in these cells was confirmed by western blot analysis (Figure 2a).
The effect of ilaprazolewas examined in shMock and knockdown cell lines with shTOPK. Cells were incubated for 48 hours and growth was determined by cck8 assay.
“The target sequences of oligo siRNAs were as follows: 5′-[…] -3′ for TOPK to produce lentiviral particles.”
The transfection medium was changed at 4 hours after transfection and then cells were cultured for 36 hours. The viral particles were harvested by filtration using a […] syringe filter, then combined with […] of polybrene (Millipore) and infected into 60% confluent HCT-116 cells overnight. The cell culture medium was replaced with fresh complete growth medium for 24 hours and then cells were selected with puromycin ([…]) for 36 hours. The selected cells were used for experiments.

[12] = system: HCT116 xenograft; assay: HCT116 xenograft mouse model, tumor growth; assay type: in vivo, CB-17/Icr-scid mice; details: for tumor weight: control 1.45 ± 0.33 g
Description: (§6) Estimated tumor volumes of both treating groups were less than that of the control group throughout the treatment. […] Animals were then scarified and the average tumor weights were measured and calculated. The tumor weight of the control group was 1.45 ± 0.33 g, whereas the tumor weights of low-dose and high-dose treated groups were 0.67 ± 0.21g and 0.52 ± 0.11g, respectively (Figure 5c), representing significant reduction.
(§7) CB-17/Icr-scid mice were purchased from Beijing HFK Bioscience CO., LTD (Beijing, China). The animals were maintained under ‘specific pathogen free’ conditions. The mice were randomly divided into three groups: (i) vehicle group (n = 8); (ii) 150 mg/kg ilaprazole-treated group (n = 8); (III) 75 mg/kg ilaprazole-treated group. HCT 116 cells were inoculated subcutaneously (2 × 10^6 cells) into the left flank of each mouse in all groups. Treatment was started after 4 days of cell injection. The duration of the animal study was 19 days. The tumor volume was calculated from measurements of 3 diameters of the individual tumor based on the following formula:
tumor volume (mm^3) = (length × width × height × 0.52). The mice were monitored until tumors reached 1 cm^3 total volume, at which the mice were euthanized and the tumors were extracted. The tumors were dissected and sent for immune-histochemical analysis.

[13] = HCT116 xenograft mouse model, toxicity and body weight; assay type: in vivo, CB-17/Icr-scid mice
Description: as §6
as §7, with “formula: […]” for “formula:”

[14] = rat, in vivo; cited from earlier work

SMILES: COc1ccc2nc([S@@+]([O-])Cc3ncc(C)c(OC)c3C)[nH]c2c1 [Esomeprazole, esomeprazole]
Kd [1]: n.b^c | IC50 [2]: > 500 µM

SMILES: COc1ccnc(C[S+]([O-])c2nc3cc(-n4cccc4)ccc3[nH]2)c1C (centres unmarked) [Ilaprazole, ilaprazole]
Kd ([1]; read-out: Kd): 111 ± 2.3 µM | IC50 [2]: 40 ± 0.6 µM | IC50 [4]: 33.2 ± 1 µM | IC50 [5]: 30.1 to 148 µM | apoptotic death [6]: 32.03% | apoptotic death [7]: 7.62% | phosphorylation of histone H3 (Ser10) [8]: substantially attenuated in a dose-dependent manner | phosphorylation of histone H3 (Ser10) [9]: substantially attenuated in a dose-dependent manner | cell cycle distribution [10]: cell cycle arrested at the G1 phase | growth inhibition of shTOPK cells compared with shMock cells [11]: resistant to the inhibitory effect | tumor weight ([12]; 75 mg/kg daily via gavage (low-dose)): 0.67 ± 0.21 g | tumor weight ([12]; 150 mg/kg daily via gavage (high-dose)): 0.52 ± 0.11 g | tumor volume ([12]; 75 and 150 mg/kg daily via gavage, after 2 weeks' treatment): Significant decreases | phosphorylated histone H3 in tumor tissues (immunohistochemistry) ([12]; ilaprazole-treated groups versus vehicle group): substantially decreased | microstructures of sections of the liver, kidney and spleen ([13]; mice treated daily for 15 days): No significant damage | hepatotoxicity and nephrotoxicity ([13]; mice, 75 and 150 mg/kg oral): no obvious hepatotoxicity and nephrotoxicity | mouse body weight ([13]; mice, 75 and 150 mg/kg via gavage): no effect | logP value [3]: 2.882 ± 1.045 | LD50 [14]: more than 5000 mg/kg

SMILES: COc1ccc2[nH]c([S+]([O-])Cc3ncc(C)c(OC)c3C)nc2c1 (centres unmarked) [Omeprazole, omeprazole]
Kd ([1]; read-out: Kd): 174 µM | IC50 [2]: 348 ± 7.3 µM

SMILES: COCCCOc1ccnc(C[S+]([O-])c2nc3ccccc3[nH]2)c1C (centres unmarked) [Rabeprazole, rabeprazole]
Kd ([1]; read-out: Kd): 324 µM | IC50 [2]: > 500 µM

SMILES: CCSc1ccnc(C[S+]([O-])c2nc3ccccc3[nH]2)c1C (centres unmarked) [Disuprazole, disuprazole]
Kd [1]: n.b^c | IC50 [2]: > 500 µM

Further lines, with some results ahead:

Kd ([1]; read-out: Kd): 24 µM and 24.2 µM | IC50 [2]: 153 ± 8.5 µM
SMILES: COc1ccnc(C[S+]([O-])c2nc3ccc(OC(F)F)cc3[nH]2)c1OC (centres unmarked) [Pantoprazole, pantoprazole]
logP value [3]: 1.571 ± 1.065

Kd ([1]; read-out: Kd): 241 µM and 242 µM | IC50 [2]: 103 ± 4.1 µM
SMILES: Cc1c(OCC(F)(F)F)ccnc1C[S+]([O-])c1nc2ccccc2[nH]1 (centres unmarked) [Lansoprazole, lansoprazole]
